In patent publication US5912183A, “Peptide inhibitors of mitogenesis and motogenesis” (Pharmacia & Upjohn S.p.A., priority 1993, dated 1999):
Residues, ends and D or L forms follow the SMILES beside them.

Legend:
[1] = target: T1, binding of p85 to HGF/SF receptor (Bos taurus, UniProt P23727); test: Competition of phosphopeptides with p85 for association with immobilized recombinant HGF/SF receptor (in vitro kinase assay readout); parameters: species or system human
T1 construct: made in house; host or cells: Sf9 insect cells (baculovirus), for both p85 and the receptor
T1 sequence (P23727 whole entry): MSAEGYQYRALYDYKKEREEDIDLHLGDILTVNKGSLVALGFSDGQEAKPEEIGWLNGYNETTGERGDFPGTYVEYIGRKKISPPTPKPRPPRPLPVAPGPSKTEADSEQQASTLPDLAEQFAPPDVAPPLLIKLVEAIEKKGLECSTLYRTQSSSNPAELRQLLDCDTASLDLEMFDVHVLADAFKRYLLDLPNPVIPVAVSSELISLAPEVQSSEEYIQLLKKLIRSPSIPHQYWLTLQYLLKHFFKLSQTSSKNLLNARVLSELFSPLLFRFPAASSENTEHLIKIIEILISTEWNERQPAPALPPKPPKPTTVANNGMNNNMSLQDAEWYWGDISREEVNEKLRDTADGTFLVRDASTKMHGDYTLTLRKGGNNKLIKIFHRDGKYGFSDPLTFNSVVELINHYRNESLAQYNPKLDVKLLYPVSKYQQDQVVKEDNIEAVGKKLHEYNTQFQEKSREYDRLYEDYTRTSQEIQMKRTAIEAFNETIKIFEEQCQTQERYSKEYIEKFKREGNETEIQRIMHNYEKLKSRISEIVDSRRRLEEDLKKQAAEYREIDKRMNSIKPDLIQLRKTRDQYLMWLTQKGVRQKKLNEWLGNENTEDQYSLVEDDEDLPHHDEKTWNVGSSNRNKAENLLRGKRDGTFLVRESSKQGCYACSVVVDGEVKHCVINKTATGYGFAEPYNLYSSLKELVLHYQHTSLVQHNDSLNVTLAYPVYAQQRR
How it was run: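 Sf9 lysates expressing p85 were pre-incubated 1 h at 4°C with phosphopeptides (10 μM; also 10 nM, 100 nM, 1 μM), then bound to immunoprecipitated baculovirus-expressed receptor pre-phosphorylated with 10 μM cold ATP. Bound p85 was detected by in vitro kinase labelling with [γ-32P]ATP, 15 min at 25°C, and SDS-PAGE.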

[2] = test system: binding of PI 3-kinase holoenzyme to HGF/SF receptor; test: Competition of phosphopeptides with PI 3-kinase holoenzyme (A549 cytosolic extracts) for association with recombinant HGF/SF receptor (PI 3-kinase activity assay); parameters: species or system human; conditions: summary statement in the description
Method: FIG. 3. Inhibition of binding of PI 3-kinase holoenzyme to HGF/SF receptor by tyrosine-phosphorylated peptides. The phosphopeptides which efficiently out-competed p85 (FIG. 1) were assayed for the ability to interfere with binding of the PI 3-kinase holoenzyme to the HGF/SF receptor. Cytosolic extracts from three days-starved A549 cells were pre-incubated with each of the phosphopeptides (10 μM) prior to incubation with the immobilized recombinant HGF/SF receptor. The presence of receptor-associated PI 3-kinase in the immunocomplexes was determined by PI 3-kinase activity assay, as described in Materials and Methods of Example 4. The position of the phosphatidylinositol-3-phosphate (PIP) product of the PI 3-kinase reaction is indicated.
In vitro association experiments. Sf9 cells expressing the recombinant HGF/SF receptor (approximately 4×10^6 cells/point) were lysed 36 hours after infection in buffer A (10 mM Tris-HCl buffer pH 7.5, 10% glycerol, 1% Triton X-100, 150 mM NaCl, 5 mM EDTA), supplemented with 0.2 mM phenyl-methylsulfonyl fluoride, 1 μg/ml leupeptin, 0.1 TIU/ml aprotinin and 1 μg/ml pepstatin. […]
The presence of the p85 subunit of the PI 3-kinase in the receptor immunoprecipitate was determined by: i) labelling of the receptor and associated proteins with [γ-^32 P]ATP by in vitro kinase assay; ii) Western immunoblotting; iii) PI 3-kinase activity assay. […]

CSCC[C@H](NC(=O)[C@@H](NC(=O)[C@H](CCC(=O)O)NC(=O)[C@@H](N)Cc1ccc(OP(=O)(O)O)cc1)C(C)C)C(=O)N[C@@H](CC(C)C)C(=O)N[C@@H](CCCCN)C(=O)N[C@@H](CS)C(=O)N[C@@H](Cc1c[nH]c2ccccc12)C(=O)O [H-Tyr*-Glu-Val-Met-Leu-Lys-Cys-Trp-OH] (HELM PEPTIDE1{[N[C@@H](Cc1ccc(OP(=O)(O)O)cc1)C(=O)[*:2]].E.V.M.L.K.C.W}$$$$V2.0)
Inhibition of binding of p85 to HGF/SF receptor ([1]; phosphopeptide 10 μM, p85 from Sf9 lysates, FIG. 1): efficiently outcompeted p85 | Efficiency at outcompeting p85 (relative affinity for p85) ([1]; phosphopeptides at 10 nM, 100 nM, 1 μM, FIG. 2, rank order SEQ. ID NO: 19, then 22, 20, 18): highest | Binding to PI 3-kinase [2]: capable of binding to PI 3-kinase
